{"source": "patent EP1153612A1", "about": "“ANTICANCER AGENT POTENTIATORS” (Tsuruo, Takashi, priority 1999, dated 2000)", "key": {"topoisomerase IIα": {"system": "topoisomerase IIα", "assay": "Amount of expression of topoisomerase IIα in whole cell extract by western blotting", "format": "cell-based, human", "settings": "glucose starvation condition 14 hours; PSI, MG115, MG132 5 µM; lactacystin 10 µM; E64, ZLLal 50 µM; FIG. 5(a)-(c)", "excerpt": "Topoisomerase II inhibiting anticancer drug stabilizes a complex (cleavable complex) consisting of the DNA and topoisomerase IIα occurring in a catalytic reaction process of topoisomerase IIα to cause DNA damage. Therefore, cell-killing effect of the topoisomerase II-inhibiting anticancer drug depends on the amount of intracellular expression of topoisomerase IIα essential for formation of the cleavable complex. Then, the amount of expression of topoisomerase IIα in the cultured cancer cell under the glucose starvation and hypoxia environment that are found in the solid cancer and the effect of the proteasome inhibiting agent to the amount of expression were examined.\nThe culture condition of cells is same as that described in Example 1 including the M phase synchronous culture method and culture under the glucose starvation condition. Culture under hypoxia condition, that is found in the solid cancer, similar to glucose starvation was carried out using the culture medium (that prepared by adding 5% FBS to RPMI1640 culture medium) under the ordinary condition in a Gaspack 100 anaerobic system (Becton Dickinson made). Culture under the glucose starvation condition and hypoxia condition was carried out for 14 hours .\nWith the purpose to prepare a whole cell extract solution, cells culture under the above described condition were washed with an ice-cooled PBS twice and then, cells were removed from the culture dish by using a cell scraper (Sumitomo Bakelite made) for collection. Cells collected were precipitated by centrifugation and then, dissolved in an SDS sample buffer to collect as the extract solution from all cells. For reference, the composition of the SDS sample buffer was 10% v/v, glycerol, 5% 2-mercaptoethanol, 2% SDS (sodium lauryl sulfate), and 62.5 mM tris-hydrochloric acid (pH 6.8).\nThe amount of topoisomerase IIα in the extract solution from all cells was measured by the western blotting method. The extract solution from all cells containing a total protein quantity of 30 µg was put on an SDS polyacrylamide gel (4-20 Multigel: Daiichi Pure Chemicals K.K. made) and subjected to electrophoresis in an electrophoresis buffer (25 mM tris, 192 mM glycine, and 0.1% SDS) in a 40 mA constant current for 1 hour. Subsequently, blotting was carried out in 4°C blotting buffer (25 mM tris, 192 mM glycine, and 20% methanol) in a 50 V constant voltage for 12 hours to transfer a protein separated in the SDS polyacrylamide gel to a nitrocellulose membrane. This nitrocellulose membrane was soaked in a blocking buffer (0.1% Tween 20, 4% skim milk-added PBS) for 1 hour to carry out blocking. The nitrocellulose membrane blocked was soaked in a solution, that was prepared by adding anti-topoisomerase IIα antibody (Cambridge Research Biochemicals Corp. made) of the final concentration 1 µg/ml as the primary antibody to the blocking buffer solution, for 1 hour. The nitrocellulose membrane was washed with the blocking buffer three times (5 minutes once), and then, soaked in the solution, in which a 1/1000 volume of an antimouse antibody (Amersham Pharmacia Biotech made) labeled with horse radish peroxidase as a secondary antibody had been added to the blocking buffer, for 1 hour. The nitrocellulose membrane was washed with the blocking buffer three times (5 minutes once), and then, washed with the PBS, to which 0.1% Tween 20 was added, three times (5 minutes once). The nitrocellulose membrane after completion of antibody reaction and washing was treated with the ECL reagent (Amersham Pharmacia Biotech made) after a handling manual and a topoisomerase IIα-specific signal was detected on an X-OMAT™AR film (Kodakmade). For reference, steps after blotting was carried out in a room temperature. […]\nThe cell culture condition for both M phase-synchronized culture method and culture under the glucose starvation condition was as described in Example 1. […]"}, "[1]": {"system": "human colon adenocarcinoma cell HT-29", "assay": "Sensitivity of cells to anticancer drug by colony formation method (M phase-synchronized cells, with or without proteasome inhibiting agent)", "format": "cell-based", "settings": "for change of cell-killing effect of camptothecin: lactacystin 10 µM 13 hours, camptothecin 4 hours, FIG. 14", "procedure": "In the glucose starvation environment found in the solid cancer, the effect of combined use of the proteasome inhibitor in a human colon adenocarcinoma cell HT-29 with the anticancer drug targeting topoisomerase II was tested.\nConcerning culture media, for a culture condition in a normal state, RPMI 1640 medium (Nissui Pharmaceutical Co.-made) to which a 5% FBS (fetal bovine serum) was added and for the culture condition in the glucose starvation state symbolically found in the solid cancer, RPMI 1640 medium (Lifetech Oriental-made), lacking glucose, in which the 5% FBS was added were used, respectively. Culture was carried out using a CO2 incubator (Tabai Espec-made) under conditions of 5% CO2/95% air and humidity 100%.\nIn order to test sensitivity to the anticancer drug, the cell cycle synchronization culture methodwas employed. Nocodazol (Sigma made) was used to synchronize the cell cycle, cells in a logarithmic proliferation phase were treated with 40 ng/ml Nocodazol for 9 hours, and cells accumulated in cell division phase (Mpahse) were collected by gentle pipetting. M phase-synchronized cells collected through these steps were washed with PBS (phosphate buffered saline) followed by inoculation of 1×10^5 cells per well of 12 well-culture plate.\nM phase-synchronized cells were cultured under the normal condition and the glucose starvation condition to conduct treatments with the proteasome inhibiting agent and the anticancer drug as follows. For cells under the glucose starvation condition, the culture medium, to which the proteasome inhibiting agent and the protease inhibiting agent not inhibiting proteasome were added as the control group, and the culture medium, to which no inhibiting agent has been added, was used. For cells under the normal condition, the culture medium, to which each inhibiting agent was not added, was used. After inoculation of cells, culture was carried out for 13 hours in each culture medium. […]\nSensitivity of cells to the anticancer drug was measured using the colony formation method. As described above, cells treated with the proteasome inhibiting agent and the anticancer drug were washed with PBS followed by soaking in trypsin (Lifetech Oriental made) solution and removed from a culture dish to suspend in an ordinary culture medium. These cells were inoculated again in 500 to 5000 cells for a 10 cm culture dish and cultured for 10 to 12 days to form a colony. The colony formed was fixed by 10% formaldehyde solution and stainedwith 0.01% crystal violet (Wako Pure Chemicals made) solution. Number of colony was counted and a Cell survival rate was calculated assuming that the number of colonies untreated with the anticancer drug is 1.\nFor reference, the proteasome inhibiting agent and the protease inhibiting agent not inhibiting proteasome used as described above were as follows. • (1) Proteasome inhibiting agent • . […] MG115 (carbobenzoxy-L-Leucyl-L-Leucyl-L-Norvalinal): final concentration 2.5 µM (Peptide Institute Inc. made) • . MG132 (carbobenzoxy-L-Leucyl-L-Leucyl-Leucinal) : final concentration 2.5 µM (Peptide Institute Inc. made) • . Lactacystin, final concentration 10 µM (Kindly supplied from The Kitasato Institute made) • (2) Protease inhibiting agent not inhibiting proteasome • . E64, final concentration 25 µM (Peptide Institute Inc. made) • . ZLLal (carbobenzoxy-L-Leucyl-L-Leucinal): final concentration 25 µM (Peptide Institute Inc. made)\nThe cell culture condition for both M phase-synchronized culture method and culture under the glucose starvation condition was as described in Example 1. M phase-synchronized cells were cultured in the culture medium, to which lactacystin of the final concentration 10 µM was added, or the culture medium, to which this was not added, as the proteasome inhibiting agent under the ordinary condition and the glucose starvation condition, respectively, for 13 hours. […]"}}, "data": [{"smiles": "CC(=O)N[C@@H](CSC(=O)[C@]1([C@@H](O)C(C)C)NC(=O)[C@H](C)[C@@H]1O)C(=O)O", "note": "[lactacystin]", "values": [{"measurement": "expressed amount of topoisomerase IIα", "setting": "topoisomerase IIα", "value": "similarly inhibits drop of expression of topoisomerase IIα"}, {"measurement": "change of cell-killing effect of bleomycin", "setting": "[1]; glucose starvation condition, lactacystin 7.5 µM 13 hours, bleomycin 4 hours", "value": "enhances the cell-killing effect"}, {"measurement": "change of cell-killing effect of mitomycin C", "setting": "[1]; glucose starvation condition, lactacystin 7.5 µM 13 hours, mitomycin C 4 hours", "value": "enhances the cell-killing effect of mitomycin C"}, {"measurement": "change of cell-killing effect of camptothecin", "setting": "[1]; glucose starvation condition", "value": "enhances the cell-killing effect of camptothecin"}, {"measurement": "effect on etoposide sensitivity", "setting": "[1]; glucose starvation condition, lactacystin 10 µM, FIG. 3", "value": "enhances sensitivity to etoposide"}, {"measurement": "change of cell-killing effect of cisplatin", "setting": "[1]; ordinary culture condition and glucose starvation condition, lactacystin 7.5 µM 13 hours, cisplatin 4 hours, FIG. 18", "value": "enhances the cell-killing effect of cisplatin"}, {"measurement": "change of cell-killing effect of camptothecin", "setting": "[1]; ordinary culture condition", "value": "the cell-killing effect thereof is enhanced"}]}]}
